Laboratory results reported in patent US20210253575A1, “PYRROLIDINE AMINE COMPOUNDS FOR THE TREATMENT OF AUTOIMMUNE DISEASE” (Hoffmann-La Roche Inc., priority 2018, published 2021).

What follows are molecules tested against T1, human TLR9 (Homo sapiens, UniProt Q9NR96) (assay: HEK293-Blue-hTLR-9 cells assay (SEAP reporter, ODN2006 stimulation)). Settings: HEK293-Blue-hTLR9 cells, ODN2006 ligand, 20 hrs incubation.
T1 sequence (Q9NR96 26-1032): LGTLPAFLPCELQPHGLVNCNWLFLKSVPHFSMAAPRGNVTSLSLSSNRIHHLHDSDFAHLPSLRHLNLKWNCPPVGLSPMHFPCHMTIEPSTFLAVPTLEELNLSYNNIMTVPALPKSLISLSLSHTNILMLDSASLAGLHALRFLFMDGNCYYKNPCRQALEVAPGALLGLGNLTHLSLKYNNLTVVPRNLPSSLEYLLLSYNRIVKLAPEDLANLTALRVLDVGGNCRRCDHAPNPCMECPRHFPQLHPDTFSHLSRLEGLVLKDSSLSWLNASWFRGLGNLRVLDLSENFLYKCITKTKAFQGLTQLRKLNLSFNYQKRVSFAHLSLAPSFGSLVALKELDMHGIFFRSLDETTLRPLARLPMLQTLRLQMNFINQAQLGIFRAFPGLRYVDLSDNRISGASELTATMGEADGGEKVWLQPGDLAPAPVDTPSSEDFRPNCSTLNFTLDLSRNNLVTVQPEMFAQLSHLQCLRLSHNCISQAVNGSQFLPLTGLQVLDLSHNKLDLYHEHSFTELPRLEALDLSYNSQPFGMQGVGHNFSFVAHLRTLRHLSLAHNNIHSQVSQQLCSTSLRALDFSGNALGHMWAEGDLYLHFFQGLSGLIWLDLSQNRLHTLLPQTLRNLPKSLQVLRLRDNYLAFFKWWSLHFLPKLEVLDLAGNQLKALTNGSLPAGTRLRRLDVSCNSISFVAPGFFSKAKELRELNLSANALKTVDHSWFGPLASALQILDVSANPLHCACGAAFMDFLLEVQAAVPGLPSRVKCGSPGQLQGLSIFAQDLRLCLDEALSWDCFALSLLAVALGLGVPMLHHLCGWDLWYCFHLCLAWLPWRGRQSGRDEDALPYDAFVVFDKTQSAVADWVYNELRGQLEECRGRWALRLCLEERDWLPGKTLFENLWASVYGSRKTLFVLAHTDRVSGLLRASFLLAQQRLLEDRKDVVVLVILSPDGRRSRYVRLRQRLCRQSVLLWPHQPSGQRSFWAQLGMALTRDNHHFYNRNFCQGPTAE
Assay type: cell-based
Protocol: The following tests were carried out in order to determine the activity of the compounds of formula (I) in HEK293-Blue-hTLR-7/8/9 cells assay.
HEK293-Blue-hTLR-9 Cells Assay:
A stable HEK293-Blue-hTLR-9 cell line was purchased from InvivoGen (Cat. #: hkb-htlr9, San Diego, Calif., USA). These cells were originally designed for studying the stimulation of human TLR9 by monitoring the activation of NF-κB. A SEAP (secreted embryonic alkaline phosphatase) reporter gene was placed under the control of the IFN-β minimal promoter fused to five NF-κB and AP-1-binding sites. The SEAP was induced by activating NF-κB and AP-1 via stimulating HEK-Blue hTLR9 cells with TLR9 ligands. Therefore the reporter expression was declined by TLR9 antagonist under the stimulation of a ligand, such as ODN2006 (Cat. #: tlrl-2006-1, Invivogen, San Diego, Calif., USA), for incubation of 20 hrs. The cell culture supernatant SEAP reporter activity was determined using QUANTI-Blue™ kit (Cat. #: rep-qb1, Invivogen, San Diego, Calif., USA) at a wavelength of 640 nm, a detection medium that turns purple or blue in the presence of alkaline phosphatase.
HEK293-Blue-hTLR9 cells were incubated at a density of 250,000˜450,000 cells/mL in a volume of 170 μL in a 96-well plate in Dulbecco's Modified Eagle's medium (DMEM) containing 4.5 g/L glucose, 50 U/mL penicillin, […], […], 2 mM L-glutamine, 10% (v/v) heat-inactivated fetal bovine serum with addition of 20 μL test compound in a serial dilution in the presence of final DMSO at 1% and 10 μL of 20 uM ODN2006 in above DMEM, perform incubation under 37° C. in a CO2incubator for 20 hrs. Then 20 μL of the superatant from each well was incubated with 180 μL Quanti-blue substrate solution at 37° C. for 2 hrs and the absorbance was read at 620˜655 nm using a spectrophotometer. The signalling pathway that TLR9 activation leads to downstream NF-κB activation has been widely accepted, and therefore similar reporter assay was modified for evaluating TLR9 antagonist.

| Structure (SMILES) | IC50 |
| --- | --- |
| N#Cc1ccc(N2C[C@H](CN3CCC(N4CCCCC4)CC3)[C@@H](C(F)(F)F)C2)c2nccnc12 [Example 61, 8-[(3S,4R)-3-[[4-(1-Piperidyl)-1-piperidyl]methyl]-4-(trifluoromethyl)pyrrolidin-1-yl]quinoxaline-5-carbonitrile] | 438 nM |
| C[C@@H]1CN(c2ccc(C(F)(F)F)c3nccnc23)C[C@H]1CN1CCC(N2CCCCC2)CC1 (relative stereo) [Example 33, 5-[Trans-3-methyl-4-[[4-(1-piperidyl)-1-piperidyl]methyl]pyrrolidin-1-yl]-8-(trifluoromethyl)quinoxaline] | 863 nM |
| C[C@@H]1CN(c2ccc(C(F)(F)F)c3nccnc23)C[C@H]1CNC1CCCNCC1 (stereo partly drawn) [Example 40] | 685 nM |
| N#Cc1ccc(N2C[C@H](CN3CCC4(CCNC4)C3)[C@@H](C(F)(F)F)C2)c2nccnc12 (stereo partly drawn) [Example 5, 8-[(3S,4R)-3-(2,7-diazaspiro[4.4]nonan-2-ylmethyl)-4-(trifluoromethyl)pyrrolidin-1-yl]quinoxaline-5-carbonitrile] | 137 nM |
| N#Cc1ccc(N2CC(CN3CCC(N4CCCCC4)CC3)C3(CC3)C2)c2nccnc12 (stereo not drawn) [Example 11, 8-[7-[[4-(1-Piperidyl)-1-piperidyl]methyl]-5-azaspiro[2.4]heptan-5-yl]quinoxaline-5-carbonitrile] | 125 nM |
| N#Cc1ccc(N2C[C@H](CN3CCC(N)CC3)[C@@H](C(F)(F)F)C2)c2nccnc12 [Example 51, 8-[(3S,4R)-3-[(4-amino-1-piperidyl)methyl]-4-(trifluoromethyl)pyrrolidin-1-yl]quinoxaline-5-carbonitrile] | 359 nM |
| N#Cc1ccc(N2CC(CN3CCC(N4CCOCC4)CC3)C3(CC3)C2)c2nccnc12 (stereo not drawn) [Example 58, 8-[7-[(4-Morpholino-1-piperidyl)methyl]-5-azaspiro[2.4]heptan-5-yl]quinoxaline-5-carbonitrile] | 605 nM |
| N#Cc1ccc(N2C[C@H](CN3CCC4(CCNCC4)CC3)[C@@H](C(F)(F)F)C2)c2cccnc12 [Example 2, 5-[(3S,4R)-3-(3,9-diazaspiro[5.5]undecan-3-ylmethyl)-4-(trifluoromethyl)pyrrolidin-1-yl]quinoline-8-carbonitrile] | 76 nM |
| N#Cc1ccc(N2C[C@@H](CN3CCC4(CCNC4)C3)[C@H](C(F)F)C2)c2cccnc12 (relative stereo) [Example 34, 5-[Trans-3-(2,7-diazaspiro[4.4]nonan-2-ylmethyl)-4-(difluoromethyl)pyrrolidin-1-yl]quinoline-8-carbonitrile] | 85 nM |
| N#Cc1ccc(N2C[C@@H](CN3CCC4(CCNCC4)CC3)[C@H](C(F)F)C2)c2cccnc12 (relative stereo) [Example 27, 5-[Trans-3-(3,9-diazaspiro[5.5]undecan-3-ylmethyl)-4-(difluoromethyl)pyrrolidin-1-yl]quinoline-8-carbonitrile] | 32 nM |
| N#Cc1ccc(N2C[C@H](CN3CC4(CCCNC4)C3)[C@@H](C(F)(F)F)C2)c2cccnc12 [Example 8, 5-[(3S,7R)-3-(2,8-diazaspiro[3.5]nonan-2-ylmethyl)-4-(trifluoromethyl)pyrrolidin-1-yl]quinoline-8-carbonitrile] | 113 nM |
| N#Cc1ccc(N2C[C@H](CN3CCC(N)C(F)(F)C3)[C@@H](C(F)(F)F)C2)c2nccnc12 (stereo partly drawn) [Example 64, 8-[(3S,4R)-3-[(4-amino-3,3-difluoro-1-piperidyl)methyl]-4-(trifluoromethyl)pyrrolidin-1-yl]quinoxaline-5-carbonitrile] | 23100 nM |
| N#Cc1ccc(N2CC(CN3CC4(CC(N)C4)C3)C3(CC3)C2)c2nccnc12 (stereo not drawn) [Example 42, 8-[7-[(6-Amino-2-azaspiro[3.3]heptan-2-yl)methyl]-5-azaspiro[2.4]heptan-5-yl]quinoxaline-5-carbonitrile] | 153 nM |
| C[C@@H]1CN(c2ccc(C(F)(F)F)c3nccnc23)C[C@H]1CN1CCC2(CCNCC2)CC1 (relative stereo) [Example 21, 3-[[Trans-4-methyl-1-[8-(trifluoromethyl)quinoxalin-5-yl]pyrrolidin-3-yl]methyl]-3,9-diazaspiro[5.5]undecane] | 294 nM |
| N#Cc1ccc(N2C[C@H](CN3CCC(CN)CC3)[C@@H](C(F)(F)F)C2)c2nccnc12 [Example 74, 8-[(3S,4R)-3-[[4-(aminomethyl)-1-piperidyl]methyl]-4-(trifluoromethyl)pyrrolidin-1-yl]quinoxaline-5-carbonitrile] | 325 nM |
| CC[C@@H]1CN(c2ccc(C#N)c3ncccc23)C[C@H]1CN1CCC2(CCNC2)C1 (relative stereo) [Example 29, 5-[Trans-3-(2,7-diazaspiro[4.4]nonan-2-ylmethyl)-4-ethyl-pyrrolidin-1-yl]quinoline-8-carbonitrile] | 56 nM |
| C[C@H]1CN(c2ccc(C#N)c3ncccc23)C[C@@H]1CN1CCC2(CCNC2)C1 (stereo partly drawn) [Example 35, 5-[(3S,4R)-3-(2,7-diazaspiro[4.4]nonan-2-ylmethyl)-4-methyl-pyrrolidin-1-yl]quinoline-8-carbonitrile] | 50 nM |
| N#Cc1ccc(N2C[C@H](CN3CCC4(CCNC4)C3)[C@@H](C(F)(F)F)C2)c2cccnc12 (stereo partly drawn) [Example 9, 5-[(3S,4R)-3-(2,7-diazaspiro[4.4]nonan-2-ylmethyl)-4-(trifluoromethyl)pyrrolidin-1-yl]quinoline-8-carbonitrile] | 104 nM |
| N#Cc1ccc(N2C[C@H](CN3CCC4(CCCNC4)CC3)[C@@H](C(F)(F)F)C2)c2cccnc12 [Example 55, 5-[(3S,4R)-3-(2,9-Diazaspiro[5.5]undecan-9-ylmethyl)-4-(trifluoromethyl)pyrrolidin-1-yl]quinoline-8-carbonitrile] | 173 nM |
| N#Cc1ccc(N2C[C@H](CN3CC4CCC(C3)C4N)[C@@H](C(F)(F)F)C2)c2nccnc12 (stereo partly drawn) [Example 73, 8-[(3S,4R)-3-[(8-amino-3-azabicyclo[3.2.1]octan-3-yl)methyl]-4-(trifluoromethyl)pyrrolidin-1-yl]quinoxaline-5-carbonitrile] | 1190 nM |
| CN(C)C[C@@H]1CCN(C[C@H]2CN(c3ccc(C#N)c4nccnc34)C[C@@H]2C(F)(F)F)C1 [Example 82, 8-[(3S,4R)-3-[[(3S)-3-[(dimethylamino)methyl]pyrrolidin-1-yl]methyl]-4-(trifluoromethyl)pyrrolidin-1-yl]quinoxaline-5-carbonitrile] | 304 nM |
| FC(F)(F)c1ccc(N2C[C@@H](CN3CCC4(CCNC4)C3)[C@H](C(F)(F)F)C2)c2nccnc12 (relative stereo) [Example 19, 5-[Trans-3-(2,7-diazaspiro[4.4]nonan-2-ylmethyl)-4-(trifluoromethyl)pyrrolidin-1-yl]-8-(trifluoromethyl)quinoxaline] | 815 nM |
| C[C@H]1CN(c2ccc(C#N)c3nccnc23)C[C@@H]1CN1CCC2(CCNC2)C1 (stereo partly drawn) [Example 30, 8-[(3S,4R)-3-(2,7-diazaspiro[4.4]nonan-2-ylmethyl)-4-methyl-pyrrolidin-1-yl]quinoxaline-5-carbonitrile] | 307 nM |
| N#Cc1ccc(N2C[C@H](CN3CCC(N)CC3)[C@@H](C(F)(F)F)C2)c2nccnc12 [Example 26, 8-[(3S,4R)-3-[(4-Amino-1-piperidyl)methyl]-4-(trifluoromethyl)pyrrolidin-1-yl]quinoxaline-5-carbonitrile] | 258 nM |
